In one data set the test system is H520 cells. The data set can be described thus: Oxic and anoxic anti-proliferative activity of the prodrugs. To be noted: read-out: Cellular Anti-proliferative IC50, H520, Oxic; oxic conditions.
Data set [1] relates to FGFR1 in H520 cells (phospho-ERK1/2). The data set can be described thus: Drug washout Western blot assay, H520 cells. Type of data set: cell-based. The following applies: H520, 2 hours exposure; for reversible or irreversible inhibition of FGFR1 in cells: 100, 300 and 600 nM, with and without washout. (Immunoblotting shows a protein as a band on a membrane.)
A further data set has as its system SUM52 cells. The data set can be described thus: Oxic and anoxic anti-proliferative activity of the prodrugs. The following applies: read-out: Cellular Anti-proliferative IC50, SUM52, Oxic; oxic conditions.
Data set [2] can be described thus: Pulse radiolysis of prodrugs. Type of data set: physicochemical.
In another data set the test system is SW780 cells. The data set can be described thus: Oxic and anoxic anti-proliferative activity of the prodrugs. Type of data set: cell-based. To be noted: Homo sapiens, SW780; oxic conditions; read-out: Cellular Anti-proliferative IC50, SW780, Oxic.

pIC50: −log10 of the molar value.

For `COc1cc(OC)c(Cl)c(N2Cc3cnc(NC(C)C)nc3N(C3CCN(C(=O)/C=C/C[N+](C)(C)Cc4c([N+](=O)[O-])ncn4C)CC3)C2=O)c1Cl.[Br-]` [Compound 202, (E)-4-(4-(3-(2,6-dichloro-3,5-dimethoxyphenyl)-7-(isopropylamino)-2-oxo-3,4-dihydropyrimido[4,5-d]pyrimidin-1(2H)-yl)piperidin-1-yl)-N,N-dimethyl-N-((1-methyl-4-nitro-1H-imidazol-5-yl)methyl)-4-oxobut-2-en-1-aminium bromide], the melting point is 171 to 174 °C. Moreover, the pIC50 in the data set on H520 cells was 5.76. For the same compound, the “reversible or irreversible inhibition of FGFR1 in cells” value in data set [1] was “reversible inhibitors”. In addition, the pIC50 in the data set with SUM52 cells was 6.13. In addition, in data set [2], the “first order rate of fragmentation kfrag” value is 26 s⁻¹. In addition, the pIC50 in the data set with SW780 cells is 5.67.
`CNc1ncc2c(n1)N([C@H]1CCN(C(=O)/C=C/C[N+](C)(C)Cc3c([N+](=O)[O-])ncn3C)C1)C(=O)N(c1c(Cl)c(OC)cc(OC)c1Cl)C2.[Br-]` [Compound 200, (S,E)-4-(3-(3-(2,6-dichloro-3,5-dimethoxyphenyl)-7-(methylamino)-2-oxo-3,4-dihydropyrimido[4,5-d]pyrimidin-1(2H)-yl)pyrrolidin-1-yl)-N,N-dimethyl-N-((1-methyl-4-nitro-1H-imidazol-5-yl)methyl)-4-oxobut-2-en-1-aminium bromide] had a melting point of 195 to 198 °C. In addition, the pIC50 in the data set on H520 cells is 5.44. The “reversible or irreversible inhibition of FGFR1 in cells” value in data set [1] is “reversible inhibitor”. Further, in data set [1] (tested at 100, 300 and 600 nM), the “concentration required to suppress FGFR1 signalling through phospho-ERK1/2” value was 300 nM. Moreover, the pIC50 in the data set with SUM52 cells is 6.64. For the same compound, the “first order rate of fragmentation kfrag” value in data set [2] amounted to 32 s⁻¹. Moreover, the pIC50 in the data set on SW780 cells is 5.58.

In general, melting point refers to the temperature, or range, at which the solid turns liquid. The term pIC50 denotes the IC50 on a negative log10 scale, so that one unit is a factor of ten.

These data come from patent US11192890B2, “FGFR kinase inhibitors and pharmaceutical uses” (AUCKLAND UNISERVICES LIMITED, priority 2017, dated 2021).
